Data taken from patent publication US10280175B2, “Hepatitis B antiviral agents” (Enanta Pharmaceuticals, Inc., priority 2016, dated 2019).

Test system: HBV in HepAD38 cells
Assay: HepAD38 cell antiviral assay (reduction of viral product accumulation)
Type: cell-based
Settings: Hepatitis B virus, concentration reducing viral product accumulation by 50% relative to no drug controls
Description: Methods: HepAD38 cells are maintained as previously reported (Ladner et al, Antimicrob. Agents Chemother. 1997, […], 1715). Briefly, cells are passaged upon attaining confluency in DMEM/F12 media in the presence of 10% FBS, Penn/Strep, 250 μg/mL G418, and 1 ug/ml tetracycline. Novel compounds are screened by first washing cells three times with PBS to remove tetracycline, and plating in 96 well plates at 35,000 cells/well. Compounds dissolved in DMSO are then diluted 1:200 into wells containing cells. Five days after compound addition, material is harvested for analysis. For an extended 8 day analysis, cells are plated and treated as described above, but media and compound are refreshed on d2 and d5 post initial treatment.
On harvest day, virion DNA is obtained by lysing with Sidestep Lysis and Stabilization Buffer and then quantified via quantitative real time PCR. Commercially available ELISA kits are used to quantitate the viral proteins HBsAg (Alpco) or HBeAg (US Biological) by following the manufacturer's recommended protocol after diluting samples to match the linear range of their respective assays. Irrespective of readout, compound concentrations that reduce viral product accumulation in the cell lysates or supernatants by 50% relative to no drug controls (EC50) are reported; EC50 ranges are as follows: A<1 μM; B 1-10 μM; C>10 μM.

| Structure (SMILES) | EC50 |
| --- | --- |
| O=S(=O)(c1cc(-c2ncc(-c3ccc(Br)c(F)c3)[nH]2)ccc1Cl)N1C2CC[C@@H]1C[C@H](O)C2 [Example 1] | < 1 µM |
| O=S(=O)(c1cc(-c2ncc(-c3ccc(Br)c(F)c3)[nH]2)ccc1Cl)N1C2CC[C@@H]1C[C@@H](O)C2 [Example 2] | < 1 µM |
| C[C@H](NC(=O)OC(C)(C)C)C(=O)O[C@@H]1CC2CC[C@H](C1)N2S(=O)(=O)c1cc(-c2ncc(-c3ccc(Br)c(F)c3)[nH]2)ccc1Cl [Example 3] | < 1 µM |
| C[C@H](N)C(=O)O[C@@H]1CC2CC[C@H](C1)N2S(=O)(=O)c1cc(-c2ncc(-c3ccc(Br)c(F)c3)[nH]2)ccc1Cl [Example 4] | < 1 µM |
| O=S(=O)(c1cc(-c2ncc(-c3ccc(Br)c(F)c3)[nH]2)ccc1Cl)N1CCC(O)C2(CC2)C1 (stereo not drawn) [Example 5] | < 1 µM |
| O=C(Nc1cc(F)c(F)c(F)c1)c1ccc(Cl)c(S(=O)(=O)N2C3CC[C@@H]2C[C@H](O)C3)c1 [Example 6] | < 1 µM |
| O=C(Nc1cc(F)c(F)c(F)c1)c1ccc(Cl)c(S(=O)(=O)N2C3CC[C@@H]2C[C@@H](O)C3)c1 [Example 7] | < 1 µM |
| O=C(Nc1ccc(Br)c(F)c1)c1ccc(Cl)c(S(=O)(=O)N2C3CC[C@@H]2C[C@H](O)C3)c1 [Example 8] | 1 to 10 µM |
| O=C(Nc1cc(F)c(F)c(F)c1)c1ccc(Cl)c(S(=O)(=O)N2CCC(O)C3(CC3)C2)c1 (stereo not drawn) [Example 9] | < 1 µM |
| O=S(=O)(c1cc(-c2ncc(-c3ccc(C4CC4)c(Cl)c3)[nH]2)ccc1Cl)N1C2CC[C@@H]1C[C@H](O)C2 [Example 10] | < 1 µM |
| O=S(=O)(c1cc(-c2ncc(-c3ccc(Cl)c(C4CC4)c3)[nH]2)ccc1Cl)N1C2CC[C@@H]1C[C@H](O)C2 [Example 11] | < 1 µM |
| O=S(=O)(c1cc(-c2ncc(-c3ccc(C(F)(F)F)c(C4CC4)c3)[nH]2)ccc1Cl)N1C2CC[C@@H]1C[C@H](O)C2 [Example 12] | < 1 µM |
| O=S(=O)(c1cc(-c2ncc(-c3ccc(C(F)(F)F)c(Cl)c3)[nH]2)ccc1Cl)N1C2CC[C@@H]1C[C@H](O)C2 [Example 13] | < 1 µM |
| O=S(=O)(c1cc(-c2ncc(-c3ccc(Cl)c(C(F)(F)F)c3)[nH]2)ccc1Cl)N1C2CC[C@@H]1C[C@H](O)C2 [Example 14] | < 1 µM |
| O=S(=O)(c1cc(-c2ncc(-c3ccc(C4CC4)c(C(F)(F)F)c3)[nH]2)ccc1Cl)N1C2CC[C@@H]1C[C@H](O)C2 [Example 15] | 1 to 10 µM |
| O=C1CC2CCC(C1)N2S(=O)(=O)c1cc(C(=O)Nc2cc(F)c(F)c(F)c2)ccc1Cl [Example 16] | < 1 µM |
| C=C1CC2CCC(C1)N2S(=O)(=O)c1cc(C(=O)Nc2cc(F)c(F)c(F)c2)ccc1Cl [Example 17] | < 1 µM |
| O=C(Nc1cc(F)c(F)c(F)c1)c1ccc(Cl)c(S(=O)(=O)N2C3CCC2CC(O)(CO)C3)c1 (stereo not drawn) [Example 18] | < 1 µM |
| O=C(Nc1cc(F)c(F)c(F)c1)c1ccc(Cl)c(S(=O)(=O)N2C3CCC2CC(CO)C3)c1 (stereo not drawn) [Example 19] | < 1 µM |
| O=C(Nc1cc(F)c(F)c(F)c1)c1ccc(Cl)c(S(=O)(=O)N2CCC3(CC2)COC3)c1 [Example 20] | 1 to 10 µM |
| O=S(=O)(c1cc(-c2ncc(-c3ccc(Br)c(F)c3)[nH]2)ccc1Cl)N1CCC2(COC2)C1 [Example 21] | 1 to 10 µM |
| O=S(=O)(c1cc(-c2ncc(-c3ccc(Br)c(F)c3)[nH]2)ccc1Cl)N1CC2(COC2)C1 [Example 22] | 1 to 10 µM |
| O=S(=O)(c1cc(C(Nc2cc(F)c(F)c(F)c2)C(F)(F)F)ccc1Cl)N1C2CC[C@@H]1CC(O)C2 (stereo partly drawn) [Example 23] | > 10 µM |
| O=S(=O)(c1cc(C2(Nc3cc(F)c(F)c(F)c3)COC2)ccc1Cl)N1C2CC[C@@H]1CC(O)C2 (stereo partly drawn) [Example 24] | > 10 µM |
